From patent US7462615B2, “Inhibitors of cysteine proteases, the pharmaceutical compositions thereof and their therapeutic applications” (Hybrigenics SA, priority 2005, dated 2008)

What was measured:
[1] = target: T1, USP7 (Homo sapiens, UniProt Q93009); test: USP7 Activity Assay; type: biochemical; conditions: 400 nM Ub-AMC; 152 pM enzyme; pre-incubated 30 minutes at 25° C., 60 minutes at 37° C.; sigmoidal fit; read-out: USP 7 (Inhibition of cysteine protease activities)
T1 construct: His tag (from vector pFastBac-HT) (N); made in house; host or cells: Sf9 or High Five insect cells (baculovirus)
Source text: The cDNA encoding USP7 was obtained by PCR amplification from placenta mRNA. USP7 cDNA was subcloned by PCR into a baculovirus expression vector (pFastBac-HT; Invitrogen). A cDNA encoding a mutated USP7 was generated by mutagenic PCR. The corresponding protein encodes a cysteine to alanine substitution at residue 223. The sequences were ascertained by sequencing of the entire open reading frame. Bacmids encoding USP7 were generated following DH10bac transposition. The corresponding bacmids were transfected into insect cells (Sf9). Viruses were recovered from culture supernatant and amplified twice. Insect cells (Sf9 or High Five; Invitrogen) were infected for 72 hours. Total cell lysates were harvested and lyzed in lysis buffer (Tris HCl 50 mM pH7.6; 0.75% NP40; 500 mM NaCl; 10% glycerol; 1 mM DTT; 10 mM imidazole; Protease Inhibitor. Cocktail; AEBSF
20 μg.ml^−1; Aprotinin 10 μg.ml^−1). Proteins were affinity purified on metal affinity resins (Talon Metal affinity resin; BD Biosciences). Bound materials were extensively washed in wash buffer (50 mM Sodium Phosphate pH7.0; 300 mM NaCl; 10 mM imidazole; 0.5% Triton X-100; 10% glycerol) and eluted from the resin in 250 mM imidazole-containing wash buffer. Proteins were dialyzed in dialysis buffer (Tris HCl pH 7.6 20 mM; NaCl 200 mM; DTT 1 mM; EDTA 1 mM; 10% Glycerol). Proteins purifications were analyzed on 4-12% NuPAGE (Invitrogen).
USP7 was diluted in USP buffer (50 mM Tris HCl; 0.5 mM EDTA; 5 mM DTT; 0.01% Triton X-100; Bovine Serum Albumin 0.05 mg.ml^−1 pH7.6). Compounds stocks (100 mM) were stored at −20° C. in DMSO. Compounds were tested at the following final concentrations: 100 μM; 33.3 μM; 11.1 μM; 3.7 μM; 1.23 μM; 412 nM; 137 nM; 45.7 nM; 15.2 nM; 5 nM.
Reactions were performed as duplicates in Black LJL 96 well plates (HE microplates; Molecular Devices; 20 μl final reaction volume). The substrate concentration for USP7 was 400 nM Ub-AMC (Chem. Biol., 2003, 10, p. 837-846) (Boston Biochem). The concentrations of the enzyme (USP7) in specificity assays was 152 pM. The concentrations were determined in order to perform specificity assays under initial velocities at fixed substrate concentration. Compounds were pre-incubated with enzymes for 30 minutes at 25° C. Reactions were initiated by addition of substrate to the plates containing the enzymes (+/−compounds) diluted in assay buffer. Reactions were incubated for 60 minutes at 37° C. Reactions were stopped by adding acetic acid (100 mM final). Readings were performed on a Pherastar Fluorescent Reader (BMG). λ Emission 380 nm; λ Excitation=460 nm. Data (mean values +/−standard deviation) were analyzed as % of control (no compound) and plotted as percentage versus the Log of the compound concentration using GraphPad (Prism). Data were fitted to a sigmoidal model (variable slope).

[2] = target: Cathepsin B (Homo sapiens, UniProt P07858); test: Cathepsin B Activity Assay; type: biochemical; conditions: 36 μM z-RR-AMC; 3.6 nM enzyme; pre-incubated 30 minutes at 25° C., 60 minutes at 37° C.; sigmoidal fit; read-out: Cathepsin B (Inhibition of cysteine protease activities)
Description: Cathepsin B was diluted in Cathepsin B buffer (20 mM Tris HCl pH 6.8; 1 mM EDTA; 1 mM DTT). Compounds stocks (100 mM) were stored at −20° C. in DMSO. Compounds were tested at the following final concentrations: 100 μM; 33.3 μM; 11.1 μM; 3.7 μM; 1.23 μM; 412 nM; 137 nM; 45.7 nM; 15.2 nM; 5 nM. Reactions were performed as duplicates in Black LJL 96 well plates (HE microplates; Molecular Devices; 20 μl final reaction volume). The substrate concentration for cathepsin B specificity assay was 36 μM (z-RR-AMC; Calbiochem). The concentration of the enzyme (Cathepsin B) in specificity assays was 3.6 nM. The concentrations were determined in order to perform specificity assays under initial velocities at fixed substrate concentration. Compounds were pre-incubated with enzymes for 30 minutes at 25° C. Reactions were initiated by addition of substrate to the plates containing the enzymes (+/− compounds) diluted in assay buffer. Reactions were incubated for 60 minutes at 37° C. Reactions were stopped by adding acetic acid (100 mM final). Readings were performed on a Pherastar Fluorescent Reader (BMG). δ […]. Data (mean values +/− standard deviation) were analyzed as % of control (no compound) and plotted as percentage versus the Log of the compound concentration using GraphPad (Prism). Data were fitted to a sigmoidal model (variable slope).

T1 sequence (Q93009 whole entry): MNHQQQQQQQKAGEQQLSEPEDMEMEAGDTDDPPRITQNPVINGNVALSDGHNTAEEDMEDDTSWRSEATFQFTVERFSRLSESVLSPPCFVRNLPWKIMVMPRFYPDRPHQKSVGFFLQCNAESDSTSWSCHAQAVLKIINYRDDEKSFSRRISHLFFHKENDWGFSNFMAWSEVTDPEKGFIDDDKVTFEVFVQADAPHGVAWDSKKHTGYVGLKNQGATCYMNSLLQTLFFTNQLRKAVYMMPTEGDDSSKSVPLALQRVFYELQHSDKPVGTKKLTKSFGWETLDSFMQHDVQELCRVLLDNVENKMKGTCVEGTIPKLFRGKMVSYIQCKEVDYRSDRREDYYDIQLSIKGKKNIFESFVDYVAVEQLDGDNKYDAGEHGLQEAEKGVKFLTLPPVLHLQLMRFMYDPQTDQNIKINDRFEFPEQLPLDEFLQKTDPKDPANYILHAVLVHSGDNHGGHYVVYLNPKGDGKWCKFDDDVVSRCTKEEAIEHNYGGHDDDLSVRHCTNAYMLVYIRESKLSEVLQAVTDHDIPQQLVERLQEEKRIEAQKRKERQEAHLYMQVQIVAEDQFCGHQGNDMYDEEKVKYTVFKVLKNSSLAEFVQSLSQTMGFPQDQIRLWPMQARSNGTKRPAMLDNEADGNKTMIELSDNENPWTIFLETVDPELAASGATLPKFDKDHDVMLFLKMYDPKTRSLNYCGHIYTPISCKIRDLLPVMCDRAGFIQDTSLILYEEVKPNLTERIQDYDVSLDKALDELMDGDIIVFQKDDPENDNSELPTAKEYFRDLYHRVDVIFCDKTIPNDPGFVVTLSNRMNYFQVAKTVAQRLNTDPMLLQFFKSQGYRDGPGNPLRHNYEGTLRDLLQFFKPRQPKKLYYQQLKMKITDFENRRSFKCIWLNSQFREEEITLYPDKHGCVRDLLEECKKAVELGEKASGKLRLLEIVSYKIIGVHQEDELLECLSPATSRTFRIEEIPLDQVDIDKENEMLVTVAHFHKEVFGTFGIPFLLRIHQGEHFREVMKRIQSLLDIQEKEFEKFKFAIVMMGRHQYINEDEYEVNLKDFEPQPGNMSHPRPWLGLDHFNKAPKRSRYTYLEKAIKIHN

| Compound | IC50 [1] [nM] | IC50 [2] [nM] |
| --- | --- | --- |
| O=C1c2ccccc2-c2nn3c(CO)nnc3nc21 [Example 1h/B] | 1610 | 547 |
| Cn1nc2nc3c(nc2n1)-c1ccccc1C3=O [Example 4a, 2-Methyl-2H-1,2,3,4,10-pentaaza-cyclopenta[b]fluoren-9-one] | 51000 | > 100000 |
| COCc1nnc2nc3c(nn12)-c1ccccc1C3=O [Example 1i/B, 3-Methoxymethyl-1,2,3a, 4,10-pentaaza-cyclopenta[b]fluoren-9-one] | 461 | 314 |
| CCc1nnc2nc3c(nn12)C(=O)c1ccccc1-3 [Example 1d/A, 1-Ethyl-2,3,4,10,10a-pentaaza-cyclopenta[b]fluoren-9-one] | 16500 |  |
| Cc1nnc2nc3c(nn12)C(=O)c1ccccc1-3 [Example 1b/A, 1-Methyl-2,3,4,10,10a-pentaaza-cyclopenta[b]fluoren-9-one] | 16700 | 24000 |
| 6-(7)-Chloro-1-methyl-2,3,4,10,10a-pentaaza-cyclopenta[b]fluoren-9-one [Example 3/A] | 2800 | 17400 |
| Nc1nnc2nc3c(nn12)C(=O)c1ccccc1-3 [Example 1c/A, 1-Amino-2,3,4,10,10a-pentaaza-cyclopenta[b]fluoren-9-one] | 15300 | 5000 |
| CC(C)Cc1nnc2nc3c(nn12)C(=O)c1ccccc1-3 [Example 1g/A, 1-Isobutyl-2,3,4,10,10a-pentaaza-cyclopenta[b]fluoren-9-one] |  | 4620 |
| CCCc1nnc2nc3c(nn12)-c1ccccc1C3=O [Example 1e/B, 3-Propyl-1,2,3a, 4,10-pentaaza-cyclopenta[b]fluoren-9-one] | 662 | 267 |
| Nc1nnc2nc3c(nn12)-c1ccccc1C3=O [Example 1c/B, 3-Amino-1,2,3a,4,10-pentaaza-cyclopenta[b]fluoren-9-one] | 700 | 103 |
| CCCc1nnc2nc3c(nn12)C(=O)c1ccccc1-3 [Example 1e/A, 1-Propyl-2,3,4,10,10a-pentaaza-cyclopenta[b]fluoren-9-one] |  | 5410 |
| CC(C)Cc1nnc2nc3c(nn12)-c1ccccc1C3=O [Example 1g/B, 3-Isobutyl-1,2,3a,4,10-pentaaza-cyclopenta[b]fluoren-9-one] | 789 | 264 |
| Cc1nnc2nc3c(nn12)-c1ccccc1C3=O [Example 1b/B, 3-Methyl-1,2,3a,4,10-pentaaza-cyclopenta[b]fluoren-9-one] | 550 | 182 |
| O=C1c2ccccc2-c2nn3c(Cc4ccccc4)nnc3nc21 [Example 1k/B, 3-Benzyl-1,2,3a,4,10-pentaaza-cyclopenta[b]fluoren-9-one] | 425 | 363 |
| O=C1c2ccccc2-c2nn3c(C4CC4)nnc3nc21 [Example 1j/B, 3-Cyclopropyl-1,2,3a,4,10-pentaaza-cyclopenta[b]fluoren-9-one] | 207 | 181 |
| Cc1nnc2nc3c(nn12)-c1ccc(Cl)cc1C3=O [Example 3/B, 7-Chloro-3-methyl-1,2,3a, 4,10-pentaaza-cyclopenta[b]fluoren-9-one] | 522 | 147 |
| CCc1nnc2nc3c(nn12)-c1ccccc1C3=O [Example 1d/B, 3-Ethyl-1,2,3a, 4,10-pentaaza-cyclopenta[b]fluoran-9-one] | 225 | 150 |
| CCCCc1nnc2nc3c(nn12)C(=O)c1ccccc1-3 [Example 1f/A, 1-Butyl-2,3,4,10,10a-pentaaza-cyclopenta[b]fluoren-9-one] | 23000 | 6500 |
| O=C1c2ccccc2-c2nc3nnc(Cc4ccccc4)n3nc21 [Example 1k/A, 1-Benzyl-2,3,4,10,10a-pentaaza-cyclopenta[b]fluoren-9-one] | 3300 |  |
| CCCCc1nnc2nc3c(nn12)-c1ccccc1C3=O [Example 1f/B, 3-Butyl-1,2,3a,4,10-pentaaza-cyclopenta[b]fluoren-9-one] | 604 | 233 |
| O=C1c2ccccc2-c2nc3nnc(CO)n3nc21 [Example 1h/A, 1-Hydroxymethyl-2,3,4,10,10a-pentaaza-cyclopenta[b]fluoren-9-one] | 9700 | 30000 |
| COCc1nnc2nc3c(nn12)C(=O)c1ccccc1-3 [Example 1i/A, 1-Methoxymethyl-2,3,4,10,10a-pentaaza-cyclopenta[b]fluoren-9-one] |  | 1020 |
